# Results reported in PMC9889419 (Pharmacological Reports, 2022).
# Where “and” joins values, the source holds several entries; their conditions need not be identical. Equal entries are not always repeated. Structures can show the parent of a compound that is named as a salt.
# What was measured:
# MTLE mice = MTLE mice acute screen evaluation; format: in vivo
# Frings mice = Frings mice sound-induced seizures; format: in vivo; details: ip
# [1] = test system: Salmonella enterica sv. Typhimurium TA 98; test: Ames test
# Description: The test was performed according to a modified pre-incubation method [34]. The test compound was dissolved in DMSO and mixed with 20% (final concentration) cytochrome P450-enriched rat liver S9 post-mitochondrial fraction (20% w/v liver homogenate in 0.25 M Sucrose) in a phosphate buffer and added to an overnight bacterial culture. The mixture was divided into two samples and NADPH added to one of the samples to determine if the test compound requires cytochrome P450 bioactivation to be mutagenic. Both reactions (± NADPH) were incubated at 37 °C for 30 min and then added to a top agar solution containing 0.6% agar, 0.05 mM histidine and 0.05 mM biotin and plated on minimal glucose agar plates. Revertant colonies were counted after a 48 h-incubation at 37 °C. […] Acridine orange at 0.02 mM was also included as a positive control.
# hNav1.4 sodium channel = target: T1, hNav1.4 sodium channel (Homo sapiens, UniProt P35499); test: Nav channel electrophysiology (IonWorks Quattro); format: cell-based
# T1 construct: host or cells: CHO cells
# T1 sequence (P35499 whole entry): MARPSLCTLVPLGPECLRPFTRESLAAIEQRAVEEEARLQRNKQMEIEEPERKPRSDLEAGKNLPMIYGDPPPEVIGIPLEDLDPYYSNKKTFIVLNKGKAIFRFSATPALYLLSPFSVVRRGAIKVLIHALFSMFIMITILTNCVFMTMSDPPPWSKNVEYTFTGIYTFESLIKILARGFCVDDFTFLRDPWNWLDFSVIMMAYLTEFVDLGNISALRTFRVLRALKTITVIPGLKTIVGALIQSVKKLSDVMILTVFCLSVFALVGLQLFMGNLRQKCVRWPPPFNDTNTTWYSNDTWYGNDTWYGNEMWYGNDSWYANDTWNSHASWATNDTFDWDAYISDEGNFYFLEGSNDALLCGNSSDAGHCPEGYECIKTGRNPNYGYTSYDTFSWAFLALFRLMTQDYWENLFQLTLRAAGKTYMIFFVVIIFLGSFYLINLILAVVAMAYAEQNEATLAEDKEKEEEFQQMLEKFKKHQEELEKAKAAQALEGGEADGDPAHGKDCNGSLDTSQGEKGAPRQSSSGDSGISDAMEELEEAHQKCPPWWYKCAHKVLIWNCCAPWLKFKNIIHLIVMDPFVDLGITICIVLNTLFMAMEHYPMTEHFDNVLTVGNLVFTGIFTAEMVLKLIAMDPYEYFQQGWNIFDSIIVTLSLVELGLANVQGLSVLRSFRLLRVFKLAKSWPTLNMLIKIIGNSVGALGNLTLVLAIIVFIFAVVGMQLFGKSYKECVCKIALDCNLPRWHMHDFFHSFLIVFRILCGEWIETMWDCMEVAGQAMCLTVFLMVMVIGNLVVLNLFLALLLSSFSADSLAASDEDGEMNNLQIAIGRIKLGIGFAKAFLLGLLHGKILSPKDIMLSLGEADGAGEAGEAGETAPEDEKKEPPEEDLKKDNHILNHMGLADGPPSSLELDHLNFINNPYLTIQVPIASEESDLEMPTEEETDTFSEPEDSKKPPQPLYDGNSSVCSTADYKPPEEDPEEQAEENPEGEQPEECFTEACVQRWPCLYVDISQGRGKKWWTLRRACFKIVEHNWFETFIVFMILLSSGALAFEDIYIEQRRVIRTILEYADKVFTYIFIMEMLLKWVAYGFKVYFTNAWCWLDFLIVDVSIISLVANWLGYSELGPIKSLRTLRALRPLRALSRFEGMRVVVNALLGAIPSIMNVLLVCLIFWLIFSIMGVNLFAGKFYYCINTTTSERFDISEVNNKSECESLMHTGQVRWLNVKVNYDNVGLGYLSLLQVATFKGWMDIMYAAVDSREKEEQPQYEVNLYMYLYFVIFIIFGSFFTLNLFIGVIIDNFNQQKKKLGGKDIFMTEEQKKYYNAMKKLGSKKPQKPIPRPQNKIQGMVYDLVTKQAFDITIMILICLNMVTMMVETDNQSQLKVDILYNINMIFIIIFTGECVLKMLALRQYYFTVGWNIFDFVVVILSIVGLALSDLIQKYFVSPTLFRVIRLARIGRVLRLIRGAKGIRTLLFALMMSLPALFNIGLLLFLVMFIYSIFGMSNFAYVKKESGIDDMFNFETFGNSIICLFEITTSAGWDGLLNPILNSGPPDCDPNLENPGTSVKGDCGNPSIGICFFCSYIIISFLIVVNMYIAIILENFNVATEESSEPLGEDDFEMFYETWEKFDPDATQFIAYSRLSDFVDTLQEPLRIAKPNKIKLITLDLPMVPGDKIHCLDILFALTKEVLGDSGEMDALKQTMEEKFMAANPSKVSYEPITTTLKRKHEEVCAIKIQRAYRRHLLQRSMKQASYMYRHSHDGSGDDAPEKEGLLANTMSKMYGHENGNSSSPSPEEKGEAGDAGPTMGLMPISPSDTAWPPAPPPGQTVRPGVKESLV
# Acute toxicity (LD50) = details: in vivo; for LD50 at 24 h: iv; for LD50 at 72 h: po
# Description: Acute toxicity. The tested compounds were dissolved in 0.9% saline and administered po and injected into the caudal vein (iv) of mouse or rats at the constant volume of 10 mL/kg and 1 mL/kg, respectively. Each dose was given to six animals.
# [2] = Degradation kinetics under basic conditions; format: physicochemical; details: 70.0 ± 0.5 °C, pH 9.90, 1,4-dioxane 20% v/v
# Description: Chromatographic conditions. The liquid chromatography system Merck-Hitachi LaChrom Elite, equipped with a LiChroSpher RP-18 (250 × 4.6 mm; particle size 5 µm) column from Merck was used. Isocratic elution using a mobile phase composed of phosphate buffer pH = 4.36 and acetonitrile (40:60, v/v) at a flow rate of 1 mL min^−1 at 25 °C and single-wavelength UV detection at 260 nm was applied for the analysis. The injection volume was 20 µL.
# Kinetic studies. […] After 5 min, first 50 µL sample was taken using a Hamilton syringe. The sample was diluted with 100 µL of pH = 4.36 phosphate buffer and frozen at − 18 °C. The reaction was conducted for 1606 h with samples taken at selected time intervals. After the experiment was finished, the samples have been defrosted and analyzed using the RP-HPLC method described above.
# mice [3] = test: Tail immersion test (local anesthetic activity); format: in vivo
# Description: The tail immersion test in mice. […] The method was performed by subcutaneous (sc) injection of the tested substance dissolved in saline, at a concentration range 0.06–2%, in a constant volume of 0.2 mL about 1 cm from the root of the mouse tail. Fifteen minutes later, the 3-cm distal part of the tail was immersed into temperature-controlled water (50 ± 0.5 °C). The reaction time (latency until the tail is pulled away) was measured by the means of a chronometer. In this assay the cut-off was 20 s [29].
# mice [4] = test: Capsaicin test; format: in vivo
# Description: Neurogenic pain—capsaicin test. In this test compound dissolved in saline was tested at doses 5, 10, and 30 mg/kg. Compound was administered ip and 30 min later 1.6 μg of capsaicin (Sigma-Aldrich, Germany) dissolved in 20 μL of a mixture containing 0.9% saline and ethanol (5% of the final volume) was injected intraplantarly in the ventral surface of the right-hind paw of each mouse. The animals were observed individually for 5 min following capsaicin injection. In all experimental groups, the amount of time spent on licking, biting, or lifting the injected paw was recorded with a chronometer and was considered as an indicator of nociception.
# hNav1.3 sodium channel = target: T2, hNav1.3 sodium channel (Homo sapiens, UniProt Q9NY46); test: Nav channel electrophysiology (IonWorks Quattro); format: cell-based
# T2 construct: host or cells: CHO cells
# T2 sequence (Q9NY46 whole entry): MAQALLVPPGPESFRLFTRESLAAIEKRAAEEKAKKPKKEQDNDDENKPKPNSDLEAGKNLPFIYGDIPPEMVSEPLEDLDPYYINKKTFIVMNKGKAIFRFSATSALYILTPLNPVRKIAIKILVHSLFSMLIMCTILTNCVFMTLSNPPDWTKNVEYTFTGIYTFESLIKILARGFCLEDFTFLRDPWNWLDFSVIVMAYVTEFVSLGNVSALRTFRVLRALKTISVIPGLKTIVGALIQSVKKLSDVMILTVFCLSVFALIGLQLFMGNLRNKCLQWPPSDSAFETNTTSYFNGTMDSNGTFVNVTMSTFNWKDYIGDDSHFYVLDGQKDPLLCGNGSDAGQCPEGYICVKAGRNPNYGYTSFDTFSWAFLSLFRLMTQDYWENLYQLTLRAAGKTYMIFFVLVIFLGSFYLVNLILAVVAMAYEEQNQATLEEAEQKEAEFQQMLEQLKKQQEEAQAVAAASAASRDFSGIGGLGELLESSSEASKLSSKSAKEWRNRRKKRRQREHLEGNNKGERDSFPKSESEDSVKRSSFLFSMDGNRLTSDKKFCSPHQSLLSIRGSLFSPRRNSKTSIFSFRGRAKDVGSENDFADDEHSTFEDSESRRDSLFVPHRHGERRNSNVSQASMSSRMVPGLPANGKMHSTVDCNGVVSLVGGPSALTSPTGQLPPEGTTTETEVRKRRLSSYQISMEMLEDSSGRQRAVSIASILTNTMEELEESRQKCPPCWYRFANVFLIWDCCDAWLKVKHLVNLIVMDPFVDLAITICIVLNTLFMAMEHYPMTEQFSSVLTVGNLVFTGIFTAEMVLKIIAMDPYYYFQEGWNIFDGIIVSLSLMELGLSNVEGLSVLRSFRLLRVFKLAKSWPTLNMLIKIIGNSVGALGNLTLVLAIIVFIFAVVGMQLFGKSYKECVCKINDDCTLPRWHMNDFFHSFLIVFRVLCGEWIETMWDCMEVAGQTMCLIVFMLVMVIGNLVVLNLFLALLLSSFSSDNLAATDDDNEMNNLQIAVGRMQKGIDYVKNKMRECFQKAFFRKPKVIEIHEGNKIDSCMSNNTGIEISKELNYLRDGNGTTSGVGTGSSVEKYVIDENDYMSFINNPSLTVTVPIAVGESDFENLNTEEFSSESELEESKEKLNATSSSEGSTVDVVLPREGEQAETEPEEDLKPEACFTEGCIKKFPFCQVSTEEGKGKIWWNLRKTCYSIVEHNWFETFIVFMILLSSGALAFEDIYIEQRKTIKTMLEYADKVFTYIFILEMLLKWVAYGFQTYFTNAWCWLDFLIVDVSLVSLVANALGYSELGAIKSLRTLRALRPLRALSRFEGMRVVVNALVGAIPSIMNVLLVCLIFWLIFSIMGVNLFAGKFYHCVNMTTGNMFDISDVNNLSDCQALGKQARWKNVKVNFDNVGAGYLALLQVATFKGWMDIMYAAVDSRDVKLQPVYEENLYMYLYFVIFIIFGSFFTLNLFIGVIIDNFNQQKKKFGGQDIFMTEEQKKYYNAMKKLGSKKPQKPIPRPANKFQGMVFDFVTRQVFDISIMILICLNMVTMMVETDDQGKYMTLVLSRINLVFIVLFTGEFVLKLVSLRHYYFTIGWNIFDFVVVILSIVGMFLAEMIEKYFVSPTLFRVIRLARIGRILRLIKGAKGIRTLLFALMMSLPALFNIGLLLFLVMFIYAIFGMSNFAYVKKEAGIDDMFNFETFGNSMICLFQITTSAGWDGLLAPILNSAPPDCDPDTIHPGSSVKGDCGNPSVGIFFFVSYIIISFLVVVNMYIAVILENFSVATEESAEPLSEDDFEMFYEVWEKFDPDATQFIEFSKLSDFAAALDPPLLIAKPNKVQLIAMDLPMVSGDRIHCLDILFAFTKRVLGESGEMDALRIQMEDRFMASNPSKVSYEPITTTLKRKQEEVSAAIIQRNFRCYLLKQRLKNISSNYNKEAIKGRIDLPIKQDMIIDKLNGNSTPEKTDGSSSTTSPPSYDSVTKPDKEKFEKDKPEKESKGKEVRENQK
# in vivo = details: rat, ip
# mice [5] = test: Formalin test (first screening); format: in vivo; details: ip
# Description: Formalin test. The first screening in doses 15 and 30 mg/kg was performed at the Jagiellonian University-Medical College. […] After 30 min, animals were injected with 20 μL of a 0.5% formalin solution into the plantar surface of the hind paw. The total time spent by animal licking or biting the injected paw was assessed for the following 40 min.
# rats = test: Sciatic nerve ligation (SNL) model, von Frey test; format: in vivo; details: rats; for Threshold ± S.E.M. / % Pre-Drug ± S.E.M.: 6 mg/kg b.w., i.p.
# mice [6] = test: animal or person; details: Mus musculus, ip, read-out: MES ED50
# Description: The assays were carried out within the Epilepsy Therapy Screening Program (ETSP, previously known as the Anticonvulsant Screening Program, ASP), Epilepsy Branch, National Institute of Neurological and Communicative Disorders and Stroke, National Institutes of Health in Rockville, MD, USA [23].
# The obtained compounds were screened for antiseizure activity and neurotoxicity in vivo within the Epilepsy Therapy Screening Program (ETSP, previously known as the Anticonvulsant Screening Program, ASP), Epilepsy Branch, National Institute of Neurological and Communicative Disorders and Stroke, National Institutes of Health in Rockville, MD, USA [23].
# STZ-treated mice = test: Streptozotocin-induced diabetic neuropathy, hot plate test; format: in vivo
# Description: Induction of diabetes. To induce diabetes the mice were injected with a single ip streptozotocin (STZ, Sigma-Aldrich, Germany) dose (200 mg/kg) dissolved in 0.1 N citrate buffer. Blood glucose levels were measured 1 h before and repeatedly 1, 2 and 3 weeks after STZ injection using a blood glucose monitoring system (AccuChek Active, Roche, France). Blood samples (5 µL) for the measurement of glucose concentration were obtained from the mouse tail vein. The animals were defined as diabetic when their blood glucose concentration exceeded 300 mg/dL and only those mice were used as diabetic mice in further tests. The body weight of mice was monitored 1 h before and 21 days after STZ injection.
# Assessment of heat hyperalgesia in STZ-treated mice—hot plate test. Thermal hyperalgesia was assessed using the hot plate apparatus (Bioseb, France). In this test, after the establishment of pre-drug latency to pain reaction for each animal, the mice were treated with the tested compound and 30 min later they were placed into a glass cylinder on a hot plate set at 55 °C and observed for a nocifensive response (hind paw licking or jumping). The cut-off time was established at 30 s.
smiles,measurement,setting,value
"CCC(CO)NCCOc1c(C)cccc1Cl (stereo not drawn) [Compound 4, R,S-2-((2-(2-chloro-6-methylphenoxy)ethyl)amino)butan-1-ol]",MTLE mice acute screen: % of baseline,"MTLE mice; at 30 mg/kg, recording period 5–25 min",80.8 ± 16.8 % of baseline
same,MTLE mice acute screen TPE,"MTLE mice; mice, ip",0.25 h
same,Frings mice sound-induced seizures ED50,Frings mice,6.05 (4.23–8.45) mg/kg
same,"% of benzo[a]pyrene (+NADPH) control, + NADPH, Sample 1",[1]; 0.10 mM,7.8%
same,"% of benzo[a]pyrene (+NADPH) control, + NADPH, Sample 2",[1]; 0.10 mM,7.8%
same,"% of benzo[a]pyrene (+NADPH) control, − NADPH, Sample 1",[1]; 0.10 mM,5.5%
same,"% of benzo[a]pyrene (+NADPH) control, − NADPH, Sample 2",[1]; 0.10 mM,7.4%
same,"% of benzo[a]pyrene (+NADPH) control, + NADPH, Sample 1",[1]; 0.20 mM,5.2%
same,"% of benzo[a]pyrene (+NADPH) control, + NADPH, Sample 2",[1]; 0.20 mM,7.4%
same,"% of benzo[a]pyrene (+NADPH) control, − NADPH, Sample 1",[1]; 0.20 mM,5.4%
same,"% of benzo[a]pyrene (+NADPH) control, − NADPH, Sample 2",[1]; 0.20 mM,5.3%
same,"% of benzo[a]pyrene (+NADPH) control, + NADPH, Sample 1",[1]; 0.50 mM,5.2%
same,"% of benzo[a]pyrene (+NADPH) control, + NADPH, Sample 2",[1]; 0.50 mM,7%
same,"% of benzo[a]pyrene (+NADPH) control, − NADPH, Sample 1",[1]; 0.50 mM,4.9%
same,"% of benzo[a]pyrene (+NADPH) control, − NADPH, Sample 2",[1]; 0.50 mM,6.7%
same,mutagenicity,"[1]; 0.1–0.5 mM, compared to DMSO solvent control",non-mutagenic
"CCC(CO)NCCOc1c(C)cccc1Cl (stereo not drawn) [KM-408, R,S-2-((2-(2-chloro-6-methylphenoxy)ethyl)amino)butan-1-ol hydrochloride]",IC50,hNav1.4 sodium channel; 10 Hz,8.17 µM
same,IC50,hNav1.4 sodium channel; Inactivated state,< 10 µM
same,IC50,hNav1.4 sodium channel; Tonic block,68 µM
same,LD50 at 24 h,"Acute toxicity (LD50); mouse, mice",19.8 mg/kg
same,LD50 at 72 h,"Acute toxicity (LD50); mouse, mice",246 mg/kg
same,LD50 at 24 h,"Acute toxicity (LD50); rat, rats",22.6 mg/kg
same,LD50 at 72 h,"Acute toxicity (LD50); rat, rats",670 mg/kg
same,Rate constant k,[2],0.83·10^–3 h^−1
same,t0.1,[2],127.0 h
same,half-life at 5 mg/mL,"[2]; borate buffer with 20% v/v 1,4-dioxane, pH 9.9, read-out: Half-life t0.5 (converted)",34.8 days
same,Reaction time to painful stimulus,mice [3]; 0.062%,4.4 ± 1.0 s
same,Prolongation of the time reaction,mice [3]; 0.125%,42.9%
same,Reaction time to painful stimulus,mice [3]; 0.125%,5.0 ± 1.0 s
same,Prolongation of the time reaction,mice [3]; 0.5%,166% and 165.7%
same,Reaction time to painful stimulus,mice [3]; 0.5%,9.3 ± 0.9 s
same,Prolongation of the time reaction,mice [3]; 2.0%,323% and 322.9%
same,Reaction time to painful stimulus,mice [3]; 2.0%,14.8 ± 1.9 s
same,Reaction time to painful stimulus,mice [3]; […],7.4 ± 1.0 s
same,tail immersion test: active at,mice [3]; mice,0.5%
same,reduction of nociceptive response,"mice [4]; 5 mg/kg ip, not significant",19%
same,licking response,mice [4]; 10 mg/kg ip,42.7 ± 5.6 s
same,reduction of licking response,mice [4]; 10 mg/kg ip,38%
same,licking response,mice [4]; 30 mg/kg ip,27.7 ± 5.7 s
same,reduction of licking response,mice [4]; 30 mg/kg ip,60%
same,ED50,"mice [4]; Mus musculus, mice, ip",19 mg/kg
same,IC50,hNav1.3 sodium channel; 10 Hz,13.1 µM
same,IC50,hNav1.3 sodium channel; Inactivated state,< 10 µM
same,IC50,hNav1.3 sodium channel; Tonic block,49.2 µM
same,TD50,in vivo,54.3 mg/kg
same,% of effect (II phase),mice [5]; 30.0 mg/kg,26.6%
same,Time of licking paw ± SEM (I phase),mice [5]; 30.0 mg/kg,60.6 ± 8.0 s
same,Time of licking paw ± SEM (II phase),mice [5]; 30.0 mg/kg,22.4 ± 6.5 s
same,formalin test (I phase): active at,mice [5],30 mg/kg
same,Threshold ± S.E.M.,rats; 0.0 h (pre-drug),2.88 ± 0.59 g
same,% Pre-Drug ± S.E.M.,rats; 0.5 h,131 ± 15%
same,Threshold ± S.E.M.,rats; 0.5 h,3.07 ± 0.51 g
same,% Pre-Drug ± S.E.M.,rats; 1.0 h,202 ± 19%
same,Threshold ± S.E.M.,rats; 1.0 h,5.94 ± 1.19 g
same,% Pre-Drug ± S.E.M.,rats; 2.0 h,301 ± 45 %
same,Threshold ± S.E.M.,rats; 2.0 h,8.23 ± 1.56 g
same,% Pre-Drug ± S.E.M.,rats; 4.0 h,260 ± 39 %
same,Threshold ± S.E.M.,rats; 4.0 h,7.09 ± 1.31 g
same,% Pre-Drug ± S.E.M.,rats; 6.0 h,186 ± 31%
same,Threshold ± S.E.M.,rats; 6.0 h,5.34 ± 1.32 g
same,SNL TPE,rats; ip,2 h
same,SNL: active at,"rats; ip, von Frey test",6.0 mg/kg and 6 mg/kg
same,ED50,mice [6],13.3 mg/kg
same,effect in hot plate test,"STZ-treated mice; 1 mg/kg, STZ-treated mice",not effective
same,latency to pain reaction,"STZ-treated mice; 10 mg/kg, STZ-treated mice",15.8 ± 2.2 s
same,prolongation of latency vs. diabetic control,"STZ-treated mice; 10 mg/kg, STZ-treated mice",63%
same,latency to pain reaction,"STZ-treated mice; 30 mg/kg, STZ-treated mice",21.6 ± 2.2 s
same,prolongation of latency vs. diabetic control,"STZ-treated mice; 30 mg/kg, STZ-treated mice",123%
same,STZ-induced pain (hot plate): active at,"STZ-treated mice; mice, ip",10 mg/kg
